Measurements as given in patent US20080004266A1, “Method for treating proliferative disorders associated with protooncogene products” (priority 2006, published 2008).

Assays:
V600E mutant B-raf = experiment: Degradation of B-raf in A375 melanoma cells (Western blot); type: cell-based, human; conditions: 18 hours, at 0.5 mM and 0.1 mM (so in the source)
Procedure: […] After 18 hours, the cells were lysed with 1× lysis buffer and a western blot was perform, and B-raf was detected with anti-B-raf antibody.

phosphorylated Bcr-Abl = experiment: Degradation of Bcr-Abl in KU812 cells (Western blot); type: cell-based; conditions: 18 hours
Procedure: KU812 chronic myeloid leukemia cells (ATCC) (2×10^6 cells), which harbor the Philadelphia chromosome that produces Bcr-Abl tyrosine kinase, were treated (0.1 μM and 1.0 μM) with either Compound 226, 17-AAG or 17-DMAG. After 18 hours, the cells were lysed with 1× lysis buffer, and a western blot was perform using anti-BCR-ABL antibody to detect phosphorylated Bcr-Abl.

NPM-ALK [1] = experiment: Degradation of NPM-ALK in Karpas-299 cells (Western blot); type: cell-based, human; conditions: 18 hours
Procedure: Anaplastic large-cell lymphoma cells, Karpas-299 cells (the German resource center for biological material) (2×10^6 cells), which harbor the fusion protein NPM-ALK, were treated (0.05 μM, 0.1 μM and 0.5 μM) with either Compound 226 or 17-AAG. After 18 hours and the cells were lysed with 1× lysis buffer and a western blot was perform using an anti-ALK antibody to detect and phosphorylated NPM-ALK and total NPM-ALK.

MV 4-11 cells (FLT3-ITD) = experiment: Cell survival in MV-4-11 cells (Cell Counting Kit-8); type: cell-based, human; conditions: 72 hours
Procedure: Human acute myelogenous leukemia (AML) cell line, MV 4-11 (ATCC #CRL-9591), was obtained from the American Type Culture Collection (ATCC; Manassas, Va., USA). Growth of this tumor cell line is dependent upon the expression of an activated form of the FLT3 tyrosine kinase receptor carrying an internal tandem duplication (ITD) mutation, which is the most common molecular defect associated with AML (K. W. Yee et al., Blood 100:2941-2949, 2002). MV 4-11 cells (20,000 cells/well) were cultured in 96-well plates and maintained at 37° C. for several hours. The cells were incubated at 37° C. for 72 hours with various concentrations of compounds of the invention, 17AAG, or DMAG. 17AAG and DMAG are Hsp90 inhibitors that are currently in clinical trials and are used here as positive controls for Hsp90 inhibition. Cell survival was measured with Cell Counting Kit-8 (Dojindo Laboratories, Cat # CK04).

[2] = system: Kasumi-1 cells (c-Kit N822K); experiment: Cell survival in Kasumi-1 cells (Cell Counting Kit-8); type: cell-based, human; conditions: 72 hours
Procedure: Kasumi-1 cells (20,000 cells/well) were cultured in 96-well plates and maintained at 37° C. for several hours. […] 17AAG and DMAG are Hsp90 inhibitors that are currently in clinical trials and are used here as positive controls for Hsp90 inhibition. […] Cell survival was measured with Cell Counting Kit-8 (Dojindo Laboratories, Cat # CK04).

[3] = system: NCI-H1975 cells (EGFR T790M and L858R); experiment: Cell survival in NCI-H1975 cells (Cell Counting Kit-8); type: cell-based, human; conditions: 72 hours
Procedure: Human lung cancer cell line NCI-H1975 which harbors both the T790M and the L858R mutations in EGFR was obtained from American Type Culture Collection. NCI-H1975 (10,000 cells/well) were cultured in 96-well plates and maintained at 37° C. for several hours. The cells were incubated at 37° C. for 72 hours with various concentrations of compound 226 of the invention, 17AAG or DMAG. 17AAG and DMAG are Hsp90 inhibitors that are currently in clinical trials and are used here as positive controls for Hsp90 inhibition. Cell survival was measured with Cell Counting Kit-8 (Dojindo Laboratories, Cat # CK04).

A375 cells (B-raf V600E) = experiment: Cell survival in A375 melanoma cells (Cell Counting Kit-8); type: cell-based, human; conditions: 72 hours
Procedure: Human melanoma cell line, A375 (2×10^6 cells), which contains the V600E mutation in the B-raf protein that confers constitutive […] kinase activity, was obtained from American Type Culture Collection. A375 cells (20,000 cells/well) were cultured in 96-well plates and maintained at 37° C. for several hours. The cells were incubated at 37° C. for 72 hours with various concentrations of compound 226, 17AAG or 17DMAG. 17AAG and 17DMAG are Hsp90 inhibitors that are currently in clinical trials and are used here as positive controls for Hsp90 inhibition. Cell survival was measured with Cell Counting Kit-8 (Dojindo Laboratories, Cat # CK04).

K562 cells (Bcr-Abl) = experiment: Cell survival in K562 cells (Cell Counting Kit-8); type: cell-based, human; conditions: 72 hours
Procedure: Growth of this tumor cell line is dependent upon the expression of the Bcr-Abl fusion protein (C. Gambacarti-Passerini et al., Blood Cells Mol. Dis. 23:380-394, 1997). K562 cells (20,000 cells/well) were cultured in 96-well plates and maintained at 37° C. for several hours. […] 17AAG, DMAG, and Radicical are Hsp90 inhibitors that are currently in clinical trials and are used here as positive controls for Hsp90 inhibition. […] Cell survival was measured with Cell Counting Kit-8 (Dojindo Laboratories, Cat # CK04).

[4] = system: Karpas-299 cells (NPM-ALK); experiment: Cell survival in Karpas-299 cells (Cell Counting Kit-8); type: cell-based, human; conditions: 72 hours
Procedure: Growth of this tumor cell line is dependent upon the expression of the NPM-ALK fusion protein. Karpas-299 cells (20,000 cells/well) were cultured in 96-well plates and maintained at 37° C. for several hours. The cells were incubated at 37° C. for 72 hours with various concentrations of compound 226 of the invention, 17AAG, and 17DMAG. 17AAG and 17DMAG are Hsp90 inhibitors that are currently in clinical trials and are used here as positive controls for Hsp90 inhibition. Cell survival was measured with Cell Counting Kit-8 (Dojindo Laboratories, Cat # CK04).

Flt3 with Hsp90 = conditions: cited from earlier work
[5] = system: leukemia cell that express either wild type FLT3 or FLT3-ITD mutations; conditions: cited from earlier work
Kasumi-1 cells = conditions: mutation in c-kit; cited from earlier work
B-raf = conditions: A375 (V600E) versus CHL cells (wild type B-raf); cited from earlier work
NPM-ALK [6] = conditions: NPM-ALK expressing ALCL cells; cited from earlier work

## C=CCNC1=C2C[C@@H](C)C[C@H](OC)[C@H](O)[C@@H](C)/C=C(\C)[C@H](OC(N)=O)[C@@H](OC)/C=C\C=C(/C)C(=O)NC(=CC1=O)C2=O [Compound 17AAG, 17-allylamino-17-desmethoxygeldanamycin]
V600E mutant B-raf
  degradation of V600E mutant B-raf: did not induce significant degradation
Phosphorylated Bcr-Abl; 0.1 μM
  degradation of phosphorylated Bcr-Abl: did not degrade
Phosphorylated Bcr-Abl; 1.0 μM
  degradation of phosphorylated Bcr-Abl: partially degraded
NPM-ALK [1]; 0.05 μM and 0.1 μM
  degradation of phosphorylated and total NPM-ALK: no effect
NPM-ALK [1]; 0.5 μM
  degradation of phosphorylated and total NPM-ALK: partial degradation
MV 4-11 cells (FLT3-ITD)
  IC50: 35 nM
[2]
  IC50: 685 nM
[3]
  IC50: 446 nM
A375 cells (B-raf V600E)
  IC50: 70 nM
K562 cells (Bcr-Abl)
  IC50: 122 nM
[4]
  IC50: 506 nM
Flt3 with Hsp90
  association of Flt3 with Hsp90: disrupt the association of Flt3 with Hsp90
[5]
  growth of leukemia cells: inhibited
Kasumi-1 cells
  apoptosis: induce apoptosis
B-raf
  degradation of B-raf: degraded more rapidly than in CHL cells
NPM-ALK [6]
  cell cycle and apoptosis: induce cell-cycle arrest and apoptosis
  degradation of NPM-ALK: increased degradation of NPM-ALK
